In PubChem BioAssay (NCI):
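Protocol summary: plate cells (96-well), add compound at 5 concentrations, incubate 48 h, interpolate endpoints linearly. Abbreviation: GI50, concentration required for 50% inhibition of growth. TGI denotes the concentration required for complete inhibition of growth.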

Columns and labels:
Assay in all cases: NCI-60 cell line screen, 48 h
SNB-75 CNS = system: SNB-75 CNS
MALME-3M melanoma = system: MALME-3M melanoma
CCRF-CEM leukemia = system: CCRF-CEM leukemia
UO-31 renal = system: UO-31 renal
SNB-19 CNS = system: SNB-19 CNS
SK-OV-3 ovarian = system: SK-OV-3 ovarian
NCI-H23 lung = system: NCI-H23 lung
EKVX NSCLC = system: EKVX NSCLC
LOX IMVI melanoma = system: LOX IMVI melanoma
SR leukemia = system: SR leukemia

| Compound | GI50 (SNB-75 CNS) [µM] | TGI (SNB-75 CNS) [µM] | GI50 (MALME-3M melanoma) [µM] | TGI (MALME-3M melanoma) [µM] | GI50 (CCRF-CEM leukemia) [µM] | TGI (CCRF-CEM leukemia) [µM] | GI50 (UO-31 renal) [µM] | TGI (UO-31 renal) [µM] | GI50 (SNB-19 CNS) [µM] | TGI (SNB-19 CNS) [µM] | GI50 (SK-OV-3 ovarian) [µM] | TGI (SK-OV-3 ovarian) [µM] | GI50 (NCI-H23 lung) [µM] | TGI (NCI-H23 lung) [µM] | GI50 (EKVX NSCLC) [µM] | TGI (EKVX NSCLC) [µM] | GI50 (LOX IMVI melanoma) [µM] | TGI (LOX IMVI melanoma) [µM] | GI50 (SR leukemia) [µM] | TGI (SR leukemia) [µM] |
| --- | --- | --- | --- | --- | --- | --- | --- | --- | --- | --- | --- | --- | --- | --- | --- | --- | --- | --- | --- | --- |
| CC(=O)OCC1OC([Se-])C(OC(C)=O)C(OC(C)=O)C1OC(C)=O.N#CCC[PH+](CCC#N)CCC#N.[Au+] (stereo not given) | 21.3 | > 100 | 15 | 48.3 | 3.46 | 27.3 | 8.41 | 42.1 | 10.9 | > 77.9 | 37.1 | > 94.6 | 4.55 | 23.1 | 3.12 | 8.21 | 4.34 | 28.9 | 3.06 | 13.7 |
| CCOC(=O)[C@@H](C)C[C@H](Cc1ccccc1)NC(=O)c1csc([C@@H](C[C@H](C(C)C)N(C)C(=O)[C@@H](NC(=O)[C@H]2C[C@H](O)CCN2C)C(C)C)OC(C)=O)n1 | 0.00384 | > 16.7 | 0.00208 | > 16.7 | 0.00534 | > 16.7 | 0.647 | > 16.7 | 0.00312 | > 16.7 | 0.00474 | > 16.7 | 0.00763 | > 16.7 | 0.05 | > 16.7 | 0.00422 | > 16.7 | < 0.00167 | > 16.7 |
| CCCCN(CCCC)CC(C(=O)Nc1ccc([N+](=O)[O-])cc1[N+](=O)[O-])/C(C)=N\NC(=O)C[N+](C)(C)C (stereo not given) | – | > 100 | – | > 100 | – | > 100 | – | > 100 | – | > 100 | – | > 100 | – | > 100 | – | > 100 | – | > 100 | – | 49.7 |
| OCCCc1cnco1 | – | > 100 | – | > 100 | – | > 100 | – | > 100 | – | > 100 | – | > 100 | – | > 100 | – | > 100 | – | > 100 | – | > 100 |
| COc1cc2c(cc1OCCCCn1c(-c3cccs3)nc3ccccc31)N=C[C@@H]1CCCN1C2=O | 1.22 | 2.54 | 1.74 | 3.27 | 0.247 | 1.37 | 1.23 | 5.34 | 1.53 | 4.39 | 3.32 | 9.19 | 2.05 | 4.4 | 3.36 | 11.1 | 0.789 | 3.93 | 0.45 | > 100 |
| Cc1cc(C(O)(c2ccc(Nc3ccccc3)cc2)c2ccc(Nc3ccc(S(=O)(=O)O)cc3)cc2)ccc1N (stereo not given) | 1.29 | 30.9 | 1.58 | 3.11 | 0.439 | > 100 | 1.12 | 2.38 | 1.39 | 3.48 | 2.53 | 5.92 | 1.69 | 3.56 | 1.49 | 3.89 | 0.975 | 2.17 | 0.713 | > 100 |
| CCOc1cc(/C=C/C(=O)C(C(=O)/C=C/c2ccc(OC(=O)CNc3nnc(C)s3)c(OCC)c2)C(=O)CNc2nnc(C)s2)ccc1OC(=O)CNc1nnc(C)s1 | 2.93 | 9.77 | 2.36 | 7.09 | 0.251 | 1.06 | 1.41 | 7.81 | 2.52 | 11.1 | 4.15 | 18.2 | 1.97 | 5.58 | 3 | 15.2 | 0.897 | 2.21 | 0.236 | 1.45 |
| CCCOc1ccc(/C=N/Nc2cc(C)nc3ccc(Cl)cc23)cc1 | 1.94 | 3.54 | 1.79 | 3.26 | 1.78 | 4.08 | 1.56 | 2.91 | 1.95 | 3.54 | 1.78 | 3.18 | 1.81 | 3.52 | 1.64 | 3.05 | 1.7 | 3.1 | 1.17 | 3.75 |
| O=C(Nc1ccc(I)cc1)c1cccc([N+](=O)[O-])c1O | 2.77 | 38.6 | 2.47 | 9.12 | 2.76 | 29.7 | 2.02 | 8.49 | 3.68 | > 100 | 3.05 | 44.9 | 2.26 | 8 | 2.59 | > 100 | 3.28 | > 100 | 2.87 | 19.8 |
| COc1ccc(C2CC(c3ccc4ccccc4c3)=NN2c2nc(O)c(C3=c4cc(OC)ccc4=NC3=O)s2)cc1 (stereo not given) | 0.0779 | 0.445 | 0.0243 | 0.0655 | 0.284 | > 43.3 | 0.202 | 0.414 | 0.0897 | 0.592 | 0.13 | 0.431 | 0.0348 | 0.191 | 0.0898 | 0.355 | 0.0359 | 0.127 | 0.0531 | 2.92 |
| NS(=O)(=O)c1ccc(N=C2C(=O)Nc3ccccc32)cc1 | – | > 100 | – | > 100 | – | > 100 | – | > 100 | – | > 100 | – | > 100 | – | > 100 | – | > 100 | – | > 100 | – | > 100 |
| O=c1[nH]c2ccccc2n2cc3ccccc3c12 | 13.4 | 74.4 | 25.1 | 46.5 | 5.93 | 60.5 | 12.6 | 26.6 | 8.93 | > 100 | 12.4 | 35.8 | 11.1 | 36.6 | 4.74 | 69.4 | 3 | 12 | 2.87 | 7.7 |
